In one experiment the test system is lipocalin-2. Description: Lipocalin-2 protein released by primary astrocytes (ELISA). Type of experiment: cell-based, mice. The note with it: A1 cocktail, 60 μM, approximately 24 h. The protocol: Astrocytes isolated from P2-P3 mice were treated with A1 cocktail consisting of 30 ng/mL TNF-α, 3 ng/mL IL-1α, and 400 ng/mL Clq, and S3QEL2 (S3, 60 μM) or vehicle (Con) for approximately 24 h. Levels of astrocytic lipocalin-2 protein released into the culture media were analyzed by ELISA. n=4 wells per condition. **p<0.01, ***p<0.001, one-way ANOVA with Dunnett's multiple comparisons test.
Background: In an ELISA, binding on a coated surface is turned into a signal by an enzyme label.

Another experiment relates to Nrf2. Description: Hippocampal RNA levels of Nrf2 in hTauP301S mice. Type of experiment: in vivo. Conditions: 5 mg/kg/day, six weeks.
Experiment [1] concerns astrocytic H2O2 production. Briefly: Released H2O2 from primary astrocytes (Amplex UltraRed). Conditions: S3QEL2 20 μM, S3QEL1.2 1 μM, approximately 24 h. Type of experiment: cell-based, mice. The protocol:
(FIG. 17A) Astrocytes isolated from P2-P3 mice were treated with A1 cocktail consisting of 30 ng/ml TNF-α, 3 ng/ml IL-1α, and 400 ng/ml Clq, and S3QEL1.2 (3 μM) or vehicle for approximately 6 h and analyzed by Western blotting. Phospho-STAT3 levels were normalized to total STAT3 per sample. n=6 wells per condition. **p<0.01, ***p<0.001, one-way ANOVA with Dunnett's multiple comparisons test. (FIG. 17B) Astrocytes isolated from P2-P3 mice were treated with A1 cocktail consisting of 30 ng/ml TNF-α, 3 ng/ml IL-1α, and 400 ng/ml Clq for 24 h, and analyzed for levels of released H2O2 using Amplex UltraRed, a fluorogenic substrate that is a highly sensitive indicator of H2O2, in the presence of horseradish peroxidase and superoxide dismutase. n=6 wells per condition. *p=0.01, Student's t test. (FIG. 17C) Astrocytes isolated from P2-P3 mice were treated with vehicle or 3 ng/ml IL-1α and either S3QEL2 (20 μM), S3QEL1.2 (1 μM), or vehicle for approximately 24 h, and analyzed for levels of released H2O2 using Amplex UltraRed. n=6 wells per condition. *p<0.05, **p<0.01, ***p<0.001, two-way ANOVA with Bonferroni's multiple comparisons test. […]

The subject of a further experiment is astrocytes. Description: Oxygen consumption rates (mitochondrial respiration) in astrocytes. The experiment is classed as cell-based. The source says:
Oxygen consumption rates (OCR) and maximal consumption rates are shown for indicated S3QEL2 concentrations and time points. Antimycin and rotenone were used as positive controls to inhibit mitochondrial respiration. ***p<0.001 vs. vehicle, two-way repeated measures ANOVA with Dunnett's multiple comparisons test.

The next experiment has as its system STAT3. Description: Phospho-STAT3 and total STAT3 in primary astrocytes (Western blotting). The experiment is classed as cell-based, mice. Conditions: for Phosphorylated STAT3 levels / Total STAT3 levels: S3QEL2 60 μM. On the procedure: (FIGS. 11A-11B) Astrocytes isolated from P2-P3 mice were treated with oligomeric Aβ (3 μM) and S3QEL2 (S3, 20 μM) or vehicle (V) for 24 h and analyzed by qRT-PCR (FIG. 11A) or Western blotting (B) and normalized to vehicle controls. (FIG. 11B) Phospho-STAT3 levels were normalized to total STAT3 per sample. n=3 wells per condition; *p<0.05, **p<0.01, ***p<0.001, ANOVA with Dunnett's test.
(FIGS. 12A-12B) Astrocytes isolated from P2-P3 mice were treated with oligomeric Aβ (3 μM) (A) or A1 cocktail consisting of 30 ng/mL TNF-α, 3 ng/mL IL-1α, and 400 ng/mL Clq (B), and S3QEL2 (S3, 60 μM) or vehicle (Con) for indicated durations and analyzed by Western blotting. Phospho-STAT3 levels were normalized to total STAT3 per sample, and total STAT3 levels were normalized to γ-tubulin levels per sample. n≥3 wells per condition; *p<0.05, **p<0.01, ***p<0.001, one-way ANOVA with Tukey's multiple comparisons test.
(FIG. 17A) Astrocytes isolated from P2-P3 mice were treated with A1 cocktail consisting of 30 ng/ml TNF-α, 3 ng/ml IL-1α, and 400 ng/ml Clq, and S3QEL1.2 (3 μM) or vehicle for approximately 6 h and analyzed by Western blotting. Phospho-STAT3 levels were normalized to total STAT3 per sample. n=6 wells per condition. **p<0.01, ***p<0.001, one-way ANOVA with Dunnett's multiple comparisons test. (FIG. 17B) Astrocytes isolated from P2-P3 mice were treated with A1 cocktail consisting of 30 ng/ml TNF-α, 3 ng/ml IL-1α, and 400 ng/ml Clq for 24 h, and analyzed for levels of released H2O2 using Amplex UltraRed, a fluorogenic substrate that is a highly sensitive indicator of H2O2, in the presence of horseradish peroxidase and superoxide dismutase. n=6 wells per condition. *p=0.01, Student's t test. (FIG. 17C) Astrocytes isolated from P2-P3 mice were treated with vehicle or 3 ng/ml IL-1α and either S3QEL2 (20 μM), S3QEL1.2 (1 μM), or vehicle for approximately 24 h, and analyzed for levels of released H2O2 using Amplex UltraRed. n=6 wells per condition. *p<0.05, **p<0.01, ***p<0.001, two-way ANOVA with Bonferroni's multiple comparisons test.
Similar to oligomeric Aβ, A1 cocktail (which is a mixture of TNF-α, IL-1α, and Clq) induced astrocytic reactivity that is associated with synaptic damage and neurodegeneration.
Given that this compound has a different chemical structure, these findings indicate that S3QELs suppress astrocytic reactivity and neuroinflammatory responses through modulation of complex III ROS rather than modulation of other off-target or nonspecific mechanisms.

The test system of experiment [2] is U-87 MG glioblastoma cells. Briefly: Glioblastoma cell proliferation, CellTiter-Glo luciferase assay, U-87 MG. The experiment is classed as cell-based, human. The note with it: 0-50 μM, 72 and 96 h. The protocol: Relative cell density was measured using the CellTiter-Glo luciferase assay. n=3 wells per condition. *p<0.05, **p<0.01, ***p<0.001 vs. 0 μM, one-way ANOVA with Dunnett's multiple comparisons test.
The effect of S3QELs on proliferation of glial tumor cells that have different oncogenic mutations was assessed. In particular, proliferation rates were assessed in three different human immortalized glioblastoma cells lines (A-172, T98G, and U-87 MG). A-172 and U-87 lines have mutations in PTEN, a phosphatase that indirectly regulates PI3K activities, whereas T98G cell line has a mutation in p53, a well-known tumor suppressor gene. STAT3 can affect PI3K signaling and p53 transcription and could thereby promote glioblastoma cell proliferation. Whether S3QELs reduce glioblastoma cell proliferation and aberrant intracellular signaling was tested.
Briefly, two complementary methods were used to assess cell proliferation, including the CellTiter-Glo assay and DAPI staining of cell nuclei. The effects of S3QEL2 treatment on A-172, T98G, and U-87 MG cells were measured at different drug concentrations (0, 6, 20, 30, 40, or 50 μM) and time-points after treatment (72 or 96 hours). S3QEL2 inhibits proliferation of A-172 and T98G glioblastoma cells in a highly dose-dependent manner and these effects are similar at different time-points (FIG. 15A-B).

Where [3] appears, read: A1 cocktail (TNF-α, IL-1α, Clq).

From patent publication US20240058344A1, “METHODS OF TREATING NEURODEGENERATIVE DISORDERS AND STAT3-LINKED CANCERS USING SUPPRESSORS OF ELECTRON LEAK” (Cornell University, priority 2020, published 2024) come the findings set out here.

As to `CCCN(CCC)c1ncnc2c1cnn2-c1ccc(C)c(C)c1` [S3QEL2], the “Release of lipocalin-2 protein into culture media” value with lipocalin-2 is “inhibited the release of lipocalin-2”. Further, the “Hippocampal Nrf2 RNA levels” value in the experiment with Nrf2 was “reduced”. Besides, the “Increases in astrocytic H2O2 levels induced by IL-1α” value in experiment [1] (IL-1α 3 ng/ml) was “suppressed the increases”. Moreover, in experiment [1] (vehicle), the “Baseline astrocytic H2O2 levels” value is reported as “minimal effects”. Also, the “Mitochondrial respiration (oxygen consumption rates, OCR)” value in the experiment with astrocytes is given as “does not affect mitochondrial respiration”. For the same compound, the “Phosphorylated STAT3 levels” value in the experiment with STAT3 (setting [3]) and with STAT3 (oligomeric Aβ 3 μM) was “reduced” each time. The “Total STAT3 levels” value with STAT3 (setting [3]) and with STAT3 (oligomeric Aβ 3 μM) was “reduced” each time. Moreover, the “Phospho-STAT3 levels normalized to total STAT3” value in the experiment with STAT3 (oligomeric Aβ 3 μM, S3QEL2 20 μM, 24 h) was “reduced”. In experiment [2], the “Cell proliferation (relative cell density, CellTiter-Glo)” value is recorded as “minimal effect”.
